In test [1] the test system is fecal total bile acid (FBA). The experiment in a line: Fecal bile acids in dogs, LUM001 daily. It is filed as in vivo, beagle dogs. The note with it: 14 Days; for Weight-Adjusted Fecal Total Bile Acids Excretion: n=8. Here is the method: Healthy female and male beagle dogs in the age range of 8 to 10 months were used. The animals were acclimated for at least four weeks before dose administration. Four female and four male dogs per dose group (groups 2-5) were given single daily doses of LUM001 at 1, 4, 12 and 30 mg free form/kg for 13 days. Animals in the control group (group 1) were given the same number of empty capsules as the animals of group 5 to treat all dose groups the same.
Fecal samples were collected to determine the fecal total bile acid (FBA) concentration for each animal. Fecal collections were made during the final 72 hours of the study, for three consecutive 24-hour periods between 9:00 am and 10:00 am each day, prior to dosing and feeding. The separate daily collections from each dog were weighed, combined and homogenized with distilled water in a food processor to generate a homogeneous slurry. Homogenate (1.4 g) was extracted in a final concentration ratio of 2:0.6 of 50% (v/v) tertiary butanol/distilled water for 45 minutes in a 37° C. water bath and subjected to centrifugation for 13 minutes at 2000×g. The concentration of bile acids (mmolesgram homogenate) was determined using a 96-well enzymatic assay system. Aliquots of the fecal extracts (20 μl) were added to two sets of triplicate wells in a 96 well assay plate. A standardized sodium taurocholate solution and a standardized fecal extract solution (previously made from pooled samples and characterized for its bile acid concentration) were also analyzed for assay quality control. Aliquots of sodium taurocholate (20 μl), were serially diluted to generate a standard curve containing 30-540 nmoles/well. A 230 μl aliquot of reaction mixture containing 1M hydrazine hydrate, 0.1 M pyrophosphate and 0.46 mg/ml NAD was added to each well. Subsequently, a 50 μl aliquot of either 3a-hydroxysteroid dehydrogenase enzyme (HSD; 0.8 units/ml) or assay buffer (0.1 M sodium pyrophosphate) was added to one each of the two sets of triplicates. Following 60 minutes of incubation at room temperature, the optical density at 340 nm was measured and the mean of each set of triplicate samples was calculated. The difference in optical density±HSD enzyme was used to determine the bile acid concentration (mM) of each sample based on the sodium taurocholate standard curve. The bile acid concentration of the extract (mmolesgram homogenate), the total weight of the fecal homogenate (grams) and the body weight of the dogs (kg) were used to calculate the corresponding FBA concentration in mmoles/kg/day for each animal. All reagents used for the assay were obtained from Sigma Chemical Co., St. Louis, Mo. (HSD—catalog # H-1506; NAD—catalog # N1636; sodium taurocholate—catalog # T-4009). A one-tailed, paired Student's t-test was used to determine the statistical significance of changes in FBA concentration in treated animals compared to pretreatment values and between treatment groups.

The test system of test [2] is fecal total bile acid (FBA). Nature of the test: Fecal bile acids in monkeys, LUM001 for 14 days. It is filed as in vivo, rhesus monkeys. As to conditions: n=5. The text has this: Fifteen experimentally naive male rhesus monkeys were utilized in this study. These animals were 2.1 to 4.2 years of age and weighed between 2.8 to 4.3 kg on the day prior to treatment initiation. HARLAN TEKLAD PRIMATE DIET® (Certified) was provided daily in amounts appropriate for the size and age of the animals. The diet was supplemented with fruit or vegetables 2-3 times weekly. Small bits of fruit, cereal or other treats were given to the animals following dose administration and periodically as part of facility's environmental enrichment program. Beginning prior to treatment initiation, only non-fat treats were provided to the animals (e.g., standard primate treats including peanut butter, sunflower seeds, baby food, nuts, pudding, and worms were specifically not permitted). Tap water was available ad libitum via an automatic watering device. Each animal was administered a dose of the LUM001 contained within gelatin capsules or the control article (empty gelatin capsules) once daily for 14 consecutive days. Fecal samples for determination of bile acid content were collected over approximately 24-hour periods beginning three days prior to treatment initiation and continuing until scheduled termination of dosing on Day 15. Samples were stored at −70 C until analysis.
Fecal samples were collected to determine the fecal total bile acid (FBA) concentration for each animal. Fecal collections were made during the final 72 hours of the study, for three consecutive 24-hour periods between 9:00 am and 10:00 am each day, prior to dosing and feeding. The separate daily collections from each dog were weighed, combined and homogenized with distilled water in a food processor to generate a homogeneous slurry. Homogenate (1.4 g) was extracted in a final concentration ratio of 2:0.6 of 50% (v/v) tertiary butanol/distilled water for 45 minutes in a 37° C. water bath and subjected to centrifugation for 13 minutes at 2000×g. The concentration of bile acids (mmolesgram homogenate) was determined using a 96-well enzymatic assay system. Aliquots of the fecal extracts (20 μl) were added to two sets of triplicate wells in a 96 well assay plate. A standardized sodium taurocholate solution and a standardized fecal extract solution (previously made from pooled samples and characterized for its bile acid concentration) were also analyzed for assay quality control. Aliquots of sodium taurocholate (20 μl), were serially diluted to generate a standard curve containing 30-540 nmoles/well. A 230 μl aliquot of reaction mixture containing 1M hydrazine hydrate, 0.1 M pyrophosphate and 0.46 mg/ml NAD was added to each well. […] Following 60 minutes of incubation at room temperature, the optical density at 340 nm was measured and the mean of each set of triplicate samples was calculated. […]

Regarding `CCCCC1(CCCC)CS(=O)(=O)c2ccc(N(C)C)cc2[C@@H](c2ccc(OCc3ccc(C[N+]45CCN(CC4)CC5)cc3)cc2)[C@H]1O` [LUM001], the “Weight-Adjusted Fecal Total Bile Acids Excretion, % change from vehicle group” value in test [1] (1 mg/kg/day) is reported as “(+63) %”; in test [1] (4 mg/kg/day), “(+137) %”; in test [1] (12 mg/kg/day) it was “(+158) %”; in test [1] (30 mg/kg/day) it was “(+183) %”. Besides, the “Weight-Adjusted Fecal Total Bile Acids Excretion” value in test [1] (1 mg/kg/day) turned out to be 96 ± 9 µmol/day/kg; in test [1] (4 mg/kg/day), 140 ± 6 µmol/day/kg; in test [1] (12 mg/kg/day), 152 ± 13 µmol/day/kg; in test [1] (30 mg/kg/day), 167 ± 15 µmol/day/kg. Also, the “Fecal Total Bile Acids” value was determined as 23 µmol/day/kg in test [2] (5 mg/kg once daily 14 days, Day 15); 6 µmol/day/kg in test [2] (5 mg/kg once daily, Prestudy); 63 µmol/day/kg in test [2] (50 mg/kg once daily 14 days, Day 15); 6 µmol/day/kg in test [2] (50 mg/kg once daily, Prestudy).

The values above are taken from patent US20140271734A1, “BILE ACID RECYCLING INHIBITORS FOR TREATMENT OF BARRETT'S ESOPHAGUS AND GASTROESOPHAGEAL REFLUX DISEASE” (LUMENA PHARMACEUTICALS, INC., priority 2013, published 2014).
